Measured values taken from patent US20150031572A1, “MEANS AND METHODS FOR ASSESSING NEURONAL TOXICITY” (priority 2012, published 2015).
Counter-ions that a name gives are not always drawn. Marks after values point to notes of the source that are not given here.

Assay: Plasma metabolite profiling (GC-MS, LC-MS, SPE-LC-MS) of rats dosed once daily over 28 days; treatment ratios versus untreated control
Format: in vivo, rat
Procedure: A group of each 5 male and female rats was dosed once daily with the indicated compounds (see Table 10, below for compounds, applied doses and administration details) over 28 days.
Each dose group in the studies consisted of five rats per sex. Additional groups of each 5 male and female animals served as controls. Before starting the treatment period, animals, which were 62-64 days old when supplied, were acclimatized to the housing and environmental conditions for 7 days. All animals of the animal population were kept under the same constant temperature (20-24±3° C.) and the same constant humidity (30-70%). The animals of the animal population were fed ad libitum. The food to be used was essentially free of chemical or microbial contaminants. Drinking water was also offered ad libitum. Accordingly, the water was free of chemical and microbial contaminants as laid down in the European Drinking Water Directive 98/83/EG. The illumination period was 12 hours light followed by 12 hours darkness (12 hours light, from 6:00 to 18:00, and 12 hours darkness, from 18:00 to 6:00). […] The test substances (compounds) in the Tables 1 to 9 below were dosed and administered as described in the Table 10 above.
In the morning of day 7, 14, and 28, blood was taken from the retro-orbital venous plexus from fasted anaesthetized animals. From each animal, 1 ml of blood was collected with EDTA as anticoagulant. The samples were centrifuged for generation of plasma. All plasma samples were covered with a N2 atmosphere and then stored at −80° C. until analysis.
For mass spectrometry-based metabolite profiling analyses plasma samples were extracted and a polar and a non-polar (lipid) fraction was obtained. For GC-MS analysis, the non-polar fraction was treated with methanol under acidic conditions to yield the fatty acid methyl esters. Both fractions were further derivatised with O-methyl-hydroxyamine hydrochloride and pyridine to convert Oxogroups to O-methyloximes and subsequently with a silylating agent before analysis. In LC-MS analysis, both fractions were reconstituted in appropriate solvent mixtures. HPLC was performed by gradient elution on reversed phase separation columns. Mass spectrometric detection which allows target and high sensitivity MRM (Multiple Reaction Monitoring) profiling in parallel to a full screen analysis was applied as described in WO2003073464.
Steroids and their metabolites were measured by online SPE-LC-MS (Solid phase extraction-LC-MS).
Following comprehensive analytical validation steps, the data for each analyte were normalized against data from pool samples. These samples were run in parallel through the whole process to account for process variability. The significance of treatment group values specific for sex, treatment duration and metabolite was determined by comparing means of the treated groups to the means of the respective untreated control groups using WELCH-test and quantified with treatment ratios versus control and p-values.
The identification of the most important biomarkers per toxicity pattern was done by a ranking of the analytes in the tables below. Therefore the metabolic changes in reference treatments of a given pattern (shown in the table) were compared with changes of the same metabolite in other unrelated treatments. […] The maximum absolute value of the respective TVALUE was taken to indicate the most important metabolite for the pattern.

[1] = plasma, male rats, day 7, high dose, Table 2a
[2] = plasma, male rats, day 7, high dose, Table 2b
[3] = plasma, male rats, day 14, high dose, Table 2b
[4] = plasma, male rats, day 28, high dose, Table 2a
[5] = plasma, male rats, day 28, high dose, Table 2b
[6] = plasma, male rats, day 7, high dose, Table 8a
[7] = plasma, male rats, day 7, high dose, Table 8b
[8] = plasma, male rats, day 14, high dose, Table 8a
[9] = plasma, male rats, day 14, high dose, Table 8b
[10] = plasma, male rats, day 28, high dose, Table 8a
[11] = plasma, male rats, day 28, high dose, Table 8b
[12] = plasma, female rats, day 28, high dose, Table 6a
[13] = plasma, female rats, day 28, high dose, Table 6b

## CC(=O)CCCCn1c(=O)c2c(ncn2C)n(C)c1=O [Pentoxifylline]
[1]
  Choline plasmalogen No 03, ratio versus control: 1.01
  Creatine, ratio versus control: 0.95
  Isoleucine, ratio versus control: 0.93
  Valine, ratio versus control: 0.98*
[2]
  Adrenaline (Epinephrine), ratio versus control: 0.34*
  DAG (C18:1,C18:2), ratio versus control: 0.51*
  Glutamate, ratio versus control: 0.74*
  Glycerol, polar fraction, ratio versus control: 0.73*
  Metanephrine, ratio versus control: 0.48*
  Pyruvate, ratio versus control: 0.76*
  TAG No 07, ratio versus control: 0.46*
plasma, male rats, day 14, high dose, Table 2a
  Creatine, ratio versus control: 1.36*
[3]
  Adrenaline (Epinephrine), ratio versus control: 1.34
  DAG (C18:1,C18:2), ratio versus control: 0.88*
  Glutamate, ratio versus control: 0.84
  Glycerol, polar fraction, ratio versus control: 0.74*
  Metanephrine, ratio versus control: 0.61*
  Pyruvate, ratio versus control: 0.62*
  TAG No 07, ratio versus control: 0.93
[4]
  Choline plasmalogen No 03, ratio versus control: 1.14*
  Creatine, ratio versus control: 1.18*
  Valine, ratio versus control: 1.1*
[5]
  Adrenaline (Epinephrine), ratio versus control: 0.33*
  DAG (C18:1,C18:2), ratio versus control: 0.72*
  Glutamate, ratio versus control: 0.79*
  Glycerol, polar fraction, ratio versus control: 0.8
  Metanephrine, ratio versus control: 0.63*
  Pyruvate, ratio versus control: 0.74*
  TAG No 07, ratio versus control: 0.74*
rat, in vivo
  Choline plasmalogen No 03, ratio versus control: 1.29*
  Valine, ratio versus control: 1.05*

## CNCCC(Oc1ccc(C(F)(F)F)cc1)c1ccccc1 (stereo not shown) [Fluoxetine hydrochloride]
[6]
  Ceramide (d18:1,C24:1), ratio versus control: 1.77
  threo-Sphingosine, ratio versus control: 1.2
[7]
  DAG (C18:1,C18:2), ratio versus control: 0.65*
  Serotonin (5-HT), ratio versus control: 0.33*
[8]
  4-Hydroxysphinganine (t18:0, Phytosphingosine), total, ratio versus control: 1.51*
  Ceramide (d18:1,C24:1), ratio versus control: 1.91*
[9]
  DAG (C18:1,C18:2), ratio versus control: 0.64*
  Serotonin (5-HT), ratio versus control: 0.07*
[10]
  4-Hydroxysphinganine (t18:0, Phytosphingosine), total, ratio versus control: 2.57*
  Ceramide (d18:1,C24:1), ratio versus control: 1.85*
  threo-Sphingosine, ratio versus control: 2.2*
[11]
  DAG (C18:1,C18:2), ratio versus control: 0.63*
  Serotonin (5-HT), ratio versus control: 0.28*
rat, in vivo
  4-Hydroxysphinganine (t18:0, Phytosphingosine), total, ratio versus control: 1.34*
  threo-Sphingosine, ratio versus control: 1.45*

## C#C[C@]1(O)CC[C@H]2[C@@H]3CCc4cc(O)ccc4[C@H]3CC[C@@]21C [17-alpha-Ethynylestradiol]
[12]
  3-Methoxytyrosine, ratio versus control: 1.29*
  Isoleucine, ratio versus control: 1.07
[13]
  4-Hydroxy-3-methoxyphenylglycol (HMPG), ratio versus control: 0.7*
  14-Methylhexadecanoic acid, ratio versus control: 0.86*
  16-Methylheptadecanoic acid, ratio versus control: 0.29*
  17-Methyloctadecanoic acid, ratio versus control: 0.46*
  Ceramide (d18:1,C24:1), ratio versus control: 0.6*
  Choline plasmalogen No 03, ratio versus control: 0.38*
  Homovanillic acid (HVA), ratio versus control: 0.47*
  Isopalmitic acid (C16:0), ratio versus control: 0.51*
  Lactate, ratio versus control: 0.99
  Myristic acid (C14:0), ratio versus control: 0.59*
  Phosphatidylcholine (C16:0, C20:4), ratio versus control: 0.78*
  Phosphatidylcholine No 04, ratio versus control: 0.39*
  Pyruvate, ratio versus control: 0.87*
